Measurements taken from patent US10172957B2, “Acid-labile lipophilic prodrugs of cancer chemotherapeutic agents” (priority 2011, dated 2019).

Tests used:
Type in all cases: in vitro ADME
[1] = Stability in human plasma at 37° C.
Method: The stability of the acid labile, lipophilic molecular conjugates to hydrolysis in plasma was evaluated to determine their potential to release the active cancer chemotherapeutic agents into systemic circulation and thereby cause general off target toxicity (“side effects”). The conjugates were incubated with plasma of mouse, rat and human origin.
(§1) HPLC grade Methanol from Fisher (Fair lawn, NJ, USA). Part No: A452-4 (074833). HPLC grade Water from Fisher (Fair lawn, NJ, USA). Part No: W5-4 (073352). Drug-free mouse, rat and human plasmas were purchased from Innovative Research Inc. (Southfield, Mich., USA). LIPOSYN® I.V. (30% soybean oil and egg yolk phospholipids, Abbott Laboratories) Fat Emulsion from Hospira, Inc. (Lake Forest, Ill.).
Each drug (ART 198, ART 273, ART 488 and ART 489) was prepared in triplicate in mouse, rat and human plasma individually at […] concentration and vortexed for 1 minute and placed in a water bath at 37° C. at a shake rate of 75 per minute. Samples were drawn at time points of 0, 15, 30, 45, 60, 75, 90, 105, 120, 135, 150, 165, 180, 210, 240, 300, 360 and 480 minutes.
(§2) Chromatographic separation of the compounds was performed on a Waters Acquity UPLC™ using a BEH C18 column (1.7 μm, 2.1×50 mm). The mobile phase consisted of Methanol: 0.1% Formic acid (80:20). The flow rate was 0.3 ml/min; the sample injection volume was 5 μL, resulting in a 3 minute run time.
(§3) The MS instrumentation consisted of a Waters Micromass Quattro Micro™ triple-quadrupole system (Manchester, UK). The MS system was controlled by a 4.0 version of MassLynx software. Ionization was performed in the positive electrospray ionization mode. MS/MS conditions were the following: capillary voltage 3.02 kV; cone voltage 50 v; extractor voltage 5 v; and RF lens voltage 0.5 v. The source and desolvation temperatures were 100° C. and 400° C. respectively, and the desolvation and cone gas flow were 400 and 30 L/hr, respectively.
(§4) The selected mass-to-charge (m/z) ratio transitions of the ART 198 used in the selected ion monitoring (SIM) were: for ART 198, 617 (M+K)^+, for ART 273, 589 (M+K)^+, for ART 488, 913 (M+Na)^+, and for ART 489, 957 (M+Na)^+. The dwell time was set at 200 msec. MS conditions were optimized using direct infusion of standard solutions prepared in methanol and delivered by a syringe pump at a flow rate of 20 μL/min.
(§5) Samples of 100 μL were collected at time points of 0, 15, 30, 45, 60, 75, 90, 105, 120, 135, 150, 165, 180, 210, 240, 300, 360 and 480 minutes respectively and the reaction was terminated with methanol. In a separate set of experiments the acid labile, lipophilic molecular conjugates were dissolved in a small amount of ethanol and diluted into a lipid emulsion (Liposyn®) and added to mouse and human plasma before incubation and the hydrolysis of the conjugates was similarly measured. Collected plasma samples of 100 μL containing drug were placed in separate Eppendorf micro centrifuge tubes for processing. Methanol (200 μL) was added to extract the drug using the protein precipitation technique. The micro tubes were then vortex mixed for 10 minutes and centrifuged for 15 minutes at a speed of 10,000 rpm (Eppendorf 5415C centrifuge). The supernatant was collected and filtered using a 0.45 μm filter (Waters 13 mm GHP 0.45 μm) before analysis.
The weighted linear least-squares (1/x) regression was used as the mathematical model. The coefficient (r) for the compounds ranged from 0.9925 to 0.9999. The calibration range was selected according to the concentrations anticipated in the samples to be determined.
(§6) Samples were collected at various times and the percent remaining of the acid labile, lipophilic molecular conjugate of the cancer chemotherapeutic agent was determined along with the percent of the chemotherapeutic agent released from the hydrolysis of the conjugate.

[2] = Stability in mouse plasma when added in a lipid emulsion (Liposyn); conditions: 37° C.
Method: as §1, §2, §3, §4, §5, §6

[3] = Stability in human plasma when added in a lipid emulsion (Liposyn); conditions: 37° C.
Method: as §1, §2, §3, §4, §5, §6

## CCCCCCCCCCCCCCCC1OCC(COC(=O)OC2=C(C)[C@@H]3C[C@H]4OC(=O)C(OC(=O)CC5(O)CCCCC5)[C@H]5[C@]6(C(=O)OC)OC[C@]45[C@H]([C@@H](O)[C@@H]6O)[C@@]3(C)CC2=O)O1 (stereo partly shown) [ART 489]
[1]; 0 min
  percent remaining of initial drug: 100%
[1]; 15 min
  percent remaining of initial drug: 99.3%
[1]; 30 min
  percent remaining of initial drug: 98.8%
[1]; 45 min
  percent remaining of initial drug: 98.4%
[1]; 60 min
  percent remaining of initial drug: 97.4%
[1]; 75 min
  percent remaining of initial drug: 94.6%
[1]; 90 min
  percent remaining of initial drug: 93.7%
[1]; 105 min
  percent remaining of initial drug: 93.0%
[1]; 120 min
  percent remaining of initial drug: 91.9%
[1]; 135 min
  percent remaining of initial drug: 91.7%
[1]; 150 min
  percent remaining of initial drug: 90.9%
[1]; 165 min
  percent remaining of initial drug: 90.4%
[1]; 180 min
  percent remaining of initial drug: 90.1%
[1]; 210 min
  percent remaining of initial drug: 89.0%
[1]; 240 min
  percent remaining of initial drug: 86.7%
[1]; 300 min
  percent remaining of initial drug: 84.1%
[1]; 360 min
  percent remaining of initial drug: 78.7%
[1]; 480 min
  percent remaining of initial drug: 65.9%
[2]; 0 min
  percent remaining of initial drug: 100%
[2]; 15 min
  percent remaining of initial drug: 98.0%
[2]; 30 min
  percent remaining of initial drug: 97.9%
[2]; 45 min
  percent remaining of initial drug: 97.4%
[2]; 60 min
  percent remaining of initial drug: 91.4%
[2]; 75 min
  percent remaining of initial drug: 90.3%
[2]; 90 min
  percent remaining of initial drug: 87.9%
[2]; 105 min
  percent remaining of initial drug: 80.7%
[2]; 120 min
  percent remaining of initial drug: 80.4%
[2]; 135 min
  percent remaining of initial drug: 79.9%
[2]; 150 min
  percent remaining of initial drug: 79.2%
[2]; 165 min
  percent remaining of initial drug: 78.7%
[2]; 180 min
  percent remaining of initial drug: 78.2%
[2]; 210 min
  percent remaining of initial drug: 75.6%
[2]; 240 min
  percent remaining of initial drug: 74.7%
[2]; 300 min
  percent remaining of initial drug: 73.7%
[2]; 360 min
  percent remaining of initial drug: 73.0%
[3]; 0 min
  percent remaining of initial drug: 100%
[3]; 15 min
  percent remaining of initial drug: 98.4%
[3]; 30 min
  percent remaining of initial drug: 93.9%
[3]; 45 min
  percent remaining of initial drug: 92.7%
[3]; 60 min
  percent remaining of initial drug: 88.2%
[3]; 75 min
  percent remaining of initial drug: 87.9%
[3]; 90 min
  percent remaining of initial drug: 87.5%
[3]; 105 min
  percent remaining of initial drug: 86.4%
[3]; 120 min
  percent remaining of initial drug: 86.4%
[3]; 135 min
  percent remaining of initial drug: 84.7%
[3]; 150 min
  percent remaining of initial drug: 84.6%
[3]; 165 min
  percent remaining of initial drug: 83.7%
[3]; 180 min
  percent remaining of initial drug: 82.9%
[3]; 210 min
  percent remaining of initial drug: 82.0%
[3]; 240 min
  percent remaining of initial drug: 81.4%
[3]; 300 min
  percent remaining of initial drug: 80.2%
[3]; 360 min
  percent remaining of initial drug: 78.2%
[3]; 480 min
  percent remaining of initial drug: 76.6%

## COC(=O)[C@@]12OC[C@]34[C@H]([C@@H](O)[C@@H]1O)[C@@]1(C)CC(=O)C(O)=C(C)[C@@H]1C[C@H]3OC(=O)C(OC(=O)CC1(O)CCCCC1)[C@@H]24 (stereo partly shown) [ART 198]
[1]; 0 min
  percent remaining of initial drug: 100%
[1]; 15 min
  percent remaining of initial drug: 99.3%
[1]; 30 min
  percent remaining of initial drug: 99.1%
[1]; 45 min
  percent remaining of initial drug: 94.9%
[1]; 60 min
  percent remaining of initial drug: 94.6%
[1]; 75 min
  percent remaining of initial drug: 93.1%
[1]; 90 min
  percent remaining of initial drug: 89.9%
[1]; 105 min
  percent remaining of initial drug: 87.0%
[1]; 120 min
  percent remaining of initial drug: 68.5%
[1]; 135 min
  percent remaining of initial drug: 66.4%
[1]; 150 min
  percent remaining of initial drug: 61.1%
[1]; 165 min
  percent remaining of initial drug: 59.6%
[1]; 180 min
  percent remaining of initial drug: 48.6%
[1]; 210 min
  percent remaining of initial drug: 47.6%
[1]; 240 min
  percent remaining of initial drug: 46.0%
[1]; 300 min
  percent remaining of initial drug: 44.4%
[1]; 360 min
  percent remaining of initial drug: 39.6%
[1]; 480 min
  percent remaining of initial drug: 34.2%

## CCCCCCCCCCCCCCCC1OCC(COC(=O)O[C@@H]2C(=O)C=C(C)[C@@H]3C[C@H]4OC(=O)C(OC(=O)CC(O)(C(C)C)C(C)C)C5[C@@H](C)[C@@H](O)[C@@]6(O)OC[C@@]54C6[C@@]23C)O1 (stereo partly shown) [ART 488]
[1]; 0 min
  percent remaining of initial drug: 100%
[1]; 15 min
  percent remaining of initial drug: 90.8%
[1]; 30 min
  percent remaining of initial drug: 89.1%
[1]; 45 min
  percent remaining of initial drug: 87.8%
[1]; 60 min
  percent remaining of initial drug: 87.9%
[1]; 75 min
  percent remaining of initial drug: 87.9%
[1]; 90 min
  percent remaining of initial drug: 87.1%
[1]; 105 min
  percent remaining of initial drug: 86.2%
[1]; 120 min
  percent remaining of initial drug: 85.3%
[1]; 135 min
  percent remaining of initial drug: 84.0%
[1]; 150 min
  percent remaining of initial drug: 82.7%
[1]; 165 min
  percent remaining of initial drug: 81.1%
[1]; 180 min
  percent remaining of initial drug: 78.6%
[1]; 210 min
  percent remaining of initial drug: 78.1%
[1]; 240 min
  percent remaining of initial drug: 76.5%
[1]; 300 min
  percent remaining of initial drug: 59.3%
[1]; 360 min
  percent remaining of initial drug: 59.8%
[1]; 480 min
  percent remaining of initial drug: 43.6%
[2]; 0 min
  percent remaining of initial drug: 100%
[2]; 15 min
  percent remaining of initial drug: 98.7%
[2]; 30 min
  percent remaining of initial drug: 98.2%
[2]; 45 min
  percent remaining of initial drug: 97.4%
[2]; 60 min
  percent remaining of initial drug: 96.9%
[2]; 75 min
  percent remaining of initial drug: 97.0%
[2]; 90 min
  percent remaining of initial drug: 98.3%
[2]; 105 min
  percent remaining of initial drug: 96.0%
[2]; 120 min
  percent remaining of initial drug: 95.2%
[2]; 135 min
  percent remaining of initial drug: 93.8%
[2]; 150 min
  percent remaining of initial drug: 93.1%
[2]; 165 min
  percent remaining of initial drug: 92.9%
[2]; 180 min
  percent remaining of initial drug: 91.8%
[2]; 210 min
  percent remaining of initial drug: 91.7%
[2]; 240 min
  percent remaining of initial drug: 91.4%
[2]; 300 min
  percent remaining of initial drug: 91.3%
[2]; 360 min
  percent remaining of initial drug: 90.0%
[3]; 0 min
  percent remaining of initial drug: 100%
[3]; 15 min
  percent remaining of initial drug: 98.3%
[3]; 30 min
  percent remaining of initial drug: 97.3%
[3]; 45 min
  percent remaining of initial drug: 96.1%
[3]; 60 min
  percent remaining of initial drug: 95.8%
[3]; 75 min
  percent remaining of initial drug: 95.3%
[3]; 90 min
  percent remaining of initial drug: 95.6%
[3]; 105 min
  percent remaining of initial drug: 94.6%
[3]; 120 min
  percent remaining of initial drug: 94.5%
[3]; 135 min
  percent remaining of initial drug: 92.5%
[3]; 150 min
  percent remaining of initial drug: 92.2%
[3]; 165 min
  percent remaining of initial drug: 91.9%
[3]; 180 min
  percent remaining of initial drug: 91.0%
[3]; 210 min
  percent remaining of initial drug: 91.0%
[3]; 240 min
  percent remaining of initial drug: 90.7%
[3]; 300 min
  percent remaining of initial drug: 90.7%
[3]; 360 min
  percent remaining of initial drug: 90.2%
[3]; 480 min
  percent remaining of initial drug: 88.1%
